Read-outs that look alike come from different tables or passages of the source.
How the values were obtained:
[1] = test system: Stenotrophomonas maltophilia VAP; assay: Risk factors for Stenotrophomonas maltophilia VAP, matched analysis; assay type: in vivo, patients; settings: exposure during the week before VAP; 93 cases, 380 controls
Method: Patients and methods: We conducted a retrospective analysis of prospectively collected data in a multicenter database in France. VAP was determined as microbiologically documented pneumonia occurring after at least two days of mechanical ventilation. All patients admitted from 2000 to 2015 presenting at least one episode of VAP were included. SM-VAP were compared with VAP due to other micro-organisms (VAP-other). To assess risk factors and day-30 (D30) mortality, SM-VAP were matched (1 − n) with VAP-other based on center, time from ICU admission to VAP occurrence, and SAPS II score.

glucocorticoid receptors = glucocorticoid receptors (Homo sapiens, UniProt P04150)
Sequence of glucocorticoid receptors (P04150 whole entry): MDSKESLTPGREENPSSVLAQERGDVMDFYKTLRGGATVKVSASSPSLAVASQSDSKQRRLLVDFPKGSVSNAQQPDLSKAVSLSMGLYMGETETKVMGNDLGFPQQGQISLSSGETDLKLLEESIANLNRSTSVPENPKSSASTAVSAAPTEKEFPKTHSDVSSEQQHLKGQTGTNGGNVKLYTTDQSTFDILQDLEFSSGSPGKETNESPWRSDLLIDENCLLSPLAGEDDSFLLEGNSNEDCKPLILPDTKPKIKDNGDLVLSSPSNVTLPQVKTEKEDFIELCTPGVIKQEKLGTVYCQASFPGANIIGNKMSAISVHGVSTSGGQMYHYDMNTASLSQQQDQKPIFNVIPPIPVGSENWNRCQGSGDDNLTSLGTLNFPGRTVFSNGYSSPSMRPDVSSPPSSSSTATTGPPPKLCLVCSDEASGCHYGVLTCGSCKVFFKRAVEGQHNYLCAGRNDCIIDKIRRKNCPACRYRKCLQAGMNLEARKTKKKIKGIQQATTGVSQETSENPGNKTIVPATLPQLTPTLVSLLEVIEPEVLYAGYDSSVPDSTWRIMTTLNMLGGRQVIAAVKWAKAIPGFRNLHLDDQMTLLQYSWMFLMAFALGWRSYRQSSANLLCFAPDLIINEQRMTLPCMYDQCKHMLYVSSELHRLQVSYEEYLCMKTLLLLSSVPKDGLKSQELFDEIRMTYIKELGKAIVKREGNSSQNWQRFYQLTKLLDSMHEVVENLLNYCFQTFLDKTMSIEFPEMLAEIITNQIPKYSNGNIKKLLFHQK

[2] = CVVHF filter lifespan, LMWH versus regional citrate anticoagulation (P-97); set-up: species or system human; settings: in vivo
Excerpt: Patients and methods: A monocentric retrospective study was led from January to October 2016. All the CVVHF sessions during this period were included. Prismaflex© monitors (Hospal) were used. Practioners were free to choose between citrate or LMWH defining 2 groups. We aimed a post filter ionized calcemia between 0.25 to 0.5 mmol/L in citrate group + and a post filter anti Xa activity between 0.2 to 0.5 UI/mL in LMWH.

anti-Xa activity = assay: Population pharmacokinetics of enoxaparin (anti-Xa activity) in pediatric liver transplantation (P-170); assay type: in vivo, human (children)
Method: Patients and methods: Clinical, biological and kinetic data were retrospectively collected in a single Pediatric Intensive Care Unit center from January 2013 to July 2015. We described an enoxaparin PK model in 22 children the first week following the LT. Anti-Xa activity time-courses were analyzed using a non linear mixed effects approach with Monolix version 2016R.

[3] = Heparin-induced thrombocytopenia in ICU (anti-PF4 antibody test); assay type: in vivo; settings: patients hospitalized in ICU
Method: Patients and methods: This was a retrospective, monocentric, descriptive and evaluative study conducted in our intensive care unit (ICU) over a period of 4 years 6 months. An anti-PF4 antibody test was performed in patients who developed thrombocytopenia or a 30% drop in their initial platelet kinetics and the clinical picture.

[4] = test system: acutely poisoned ventilated patients; settings: human, in vivo
[5] = 2 g day intermittent infusion, trough concentrations, theoretical target MIC 2 mg/L, 21 patients, 63 samples
[6] = Amikacin peak serum concentration (Cmax) after loading dose in patients on ECMO; assay type: in vivo, adult patients; settings: IV loading dose 25 mg kg total body weight; Cmax 30 min after end of infusion; VA- or VV-ECMO; n = 106
[7] = test system: carbapenemase-producing Enterobacteriaceae; assay: Antibiotic susceptibility of Enterobacteriaceae with decreased susceptibility to carbapenems; assay type: cell-based; settings: CA-SFM 2015
Pseudomonas aeruginosa = assay: Disk diffusion susceptibility of P. aeruginosa isolated from burned patients (P-48); assay type: cell-based; settings: 485 strains from burned patients 2012-2015, disk diffusion, FSM breakpoints
[8] = Amikacin peak serum concentration (Cmax) in ICU patients with septic shock/severe sepsis (P-52); assay type: in vivo, human
[9] = critically ill patients, 25 mg kg dose; ref 1 (de Montmollin et al. 2014); cited from earlier work
Method: Introduction: Amikacin infusion requires to target a peak serum concentration (Cmax) 8–10 times the minimal inhibitory concentration, corresponding to a Cmax at 60–80 mg L^−1 for the least susceptible bacteria. […] Membrane sequestration, alteration of the volume of distribution and lack of data in this population make drugs pharmacokinetics (PK) on ECMO challenging. Our study aimed to assess the prevalence of insufficient Amikacin Cmax in critically ill patients on ECMO and to identify re ...

[10] = set-up: method as in Taccone in 2010; settings: dosages of 25 mg kg; ref Taccone in 2010; cited from earlier work
Pseudomonas = settings: January 2010 - June 2014
Acinetobacter baumannii = settings: January 2010 - June 2014
[11] = human, in vivo
Method: Patients and methods: This study was conducted in burn center in Tunis. Patients with documented and or suspected infections were included. Were excluded pregnant women and patients with renal failure. […] For the 2nd, 3rd, 4th and 5th day, blood samples were taken before the infusion (T0), at the end (T1) and 30 min after the end of it (T2).

Escherichia-coli = assay: Resistance in nosocomial urinary tract infection: Escherichia-coli (P-219); settings: January 2010 - June 2014
eclampsia = assay: Eclampsia survey, recurrence under magnesium sulfate prevention; assay type: in vivo, patients; settings: 83 women
Excerpt: Patients and methods: We conducted a retrospective survey in a third level Tunisian university teaching hospital from January 2004 to December 2016. We included all patients with the diagnosis of eclampsia.

[12] = Caffeine in bronchiolitis related apnea, PICU retrospective study (P-118); settings: 49 treated of 54 infants; loading 20 mg kg, 5 mg kg day maintenance
[13] = not given; remark: listed apart in the source
[14] = test system: TREM-1 signalling pathway; settings: in vivo; cited from earlier work
Excerpt: Introduction: MOTREM is the clinically formulated synthetic peptide (LR12) that is currently being developed for the treatment of sepsis and for the prevention of sequelae after acute myocardial infarction. […] Its pharmacological action occurs via the Triggering Receptor Expressed on Myeloid Cells-1 (TREM-1) signalling pathway.

clinical = settings: male, human, in vivo, iv
Method: (§1) Patients and methods: Twenty-seven healthy male volunteers have been included in this clinical trial. The product was administered by continuous intravenous infusion (CIV). A single ascending dose design with 8 dose levels was used. […] All volunteers were carefully monitored. Before escalation to the next dose level, safety and PK data of the previous dose level were reviewed by a safety review committee.

[15] = MOTREM phase I first-in-human single ascending dose trial, safety and pharmacokinetics; settings: in vivo
Method: as §1

[16] = comparison value; cited from earlier work
[17] = Acute amitriptylin and clomipramine poisonings in the ICU, clinical features and pharmacokinetics
[18] = Major arrhythmia recurrence after resuscitated ischemic VF/VT, PROCAT registry (P-86); assay type: in vivo, human; settings: multivariate analysis, 256 patients, 104 treated; p = 0.870
Excerpt: Patients and methods: The PROCAT registry captures all data from patients admitted in a tertiary hospital center after a resuscitated cardiac arrest (CA). We selected patients with an initial VF VT caused by an acute coronary syndrome (ACS) and who were successfully treated with early percutaneous coronary intervention (PCI) on admission. The primary endpoint was the recurrence of major arrhythmia between ICU admission and ICU discharge. All arrhythmias resulting in CA recurrence and or severe arterial hypotension requiring infusion of vasopressors were classified as major arrhythmias. Multivariate logistic regression identified factors associated with the occurrence of major arrhythmias.

GABA-A receptors = assay: PET imaging with 11C-flumazenil, interaction of tramadol with GABA-A receptors; assay type: binding; settings: 11C-flumazenil fixation in the rat brain
[19] = Piperacillin population pharmacokinetics in critically ill children; assay type: in vivo; settings: median (range), one compartment model, n = 50 children
Excerpt: Pharmacokinetics were described using the non-linear mixed effect modelling software MONOLIX.

[20] = Residual serum concentrations of piperacillin and amoxicillin and neurological disorders (HPLC MS); assay type: in vivo, critically ill patients
Method: Patients and methods: This study was carried out retrospectively during the period 01.01.2015 to 08.02.2017, in patients hospitalized in the medical ICU-CHU Rouen with PTM.

[21] = Eight of 49 patients

## O=C(O)c1cn(C2CC2)c2cc(N3CCNCC3)c(F)cc2c1=O [ciprofloxacin]
[1]
  OR for SM-VAP, univariate analysis: 1.77 [0.92; 3.39]

## C[C@H]1C[C@H]2[C@@H]3CCC4=CC(=O)C=C[C@]4(C)[C@@]3(F)[C@@H](O)C[C@]2(C)[C@@]1(O)C(=O)CO [Betamethasone]
Glucocorticoid receptors; non-septic critically ill
  corticoresistance (mean blanching score < 2): 56%
Glucocorticoid receptors; septic shock, 10 µl cream on 3 cm^2, read at 24 h
  corticoresistance (mean blanching score < 2): 78%

## enoxaparin
[2]
  serious side effect, especially hemorrhage: No serious side effect
anti-Xa activity; 22 children, first week after LT, one-compartment, scaled to 70 kg, Monolix
  typical clearance (CLTYP): 1.26 L/h
anti-Xa activity; 22 children, scaled to 70 kg
  typical volume of distribution (VTYP): 16.9 L
anti-Xa activity; standard 50 IU kg 12 h, 7 children
  children who never attained the target range of anti-Xa activity 0.2 to 0.4 IU mL: 32%

## heparin
[3]
  incidence of HIT: 1.71%

## CN1[C@@H]2CC[C@H]1C[C@@H](OC(=O)C(CO)c1ccccc1)C2 (stereo partly drawn) [atropine]
[4]
  OR, independent risk factor for delirium: 2.333

## CO/N=C(\C(=O)N[C@@H]1C(=O)N2C(C(=O)O)=C(CSc3nc(=O)c(=O)[nH]n3C)CS[C@H]12)c1csc(N)n1 [ceftriaxone]
[5]
  rate of PK/PD target non-attainment: 62%

## NCC[C@H](O)C(=O)N[C@@H]1C[C@H](N)[C@@H](O[C@H]2O[C@H](CN)[C@@H](O)[C@H](O)[C@H]2O)[C@H](O)[C@H]1O[C@H]1O[C@H](CO)[C@@H](O)[C@H](N)[C@H]1O [Amikacin]
[6]
  Cmax < 60 mg L^−1 (proportion of patients): 39%
[7]
  resistant rate: 57%
Pseudomonas aeruginosa
  strains resistant: 62%
[8]; median dosage 22.5 mg kg, initial injection, 191 patients
  median Cmax: 72.1 mg·L
[8]; of 191 patients
  patients with Cmax greater than 80 mg l: 53 patients
  patients with Cmax less than 64 mg l: 77 patients
[9]
  patients not attaining target Cmax 60–80 mg L^−1: 33%
[10]
  peaks above 64 mg l: 70%
Pseudomonas
  resistant: 44%
Acinetobacter baumannii
  resistant: 85%
Mean dose 26 mg kg day, 1 h infusion, 18 burned patients
  cases reaching a peak between 60 and 80 μg/ml: 55%
Range (0.28–1.32)
  total volume of distribution: 0.55 L·kg
Range [1.42–8 h]
  half-life time (t1 2): 4.70 h
[11]
  amikacin clearance: 6.4 L·h
  correlation between Cpeak at day 1 and Cpeak at day 5 (r): 0.45
Escherichia-coli
  resistance: without resistance

## O=S(=O)([O-])[O-].[Mg+2] [magnesium sulfate]
eclampsia
  recurrence of eclampsia despite prevention: 6%

## Cn1c(=O)c2c(ncn2C)n(C)c1=O [caffeine]
[12]
  potential caffeine adverse effects between groups or pre and post-caffeine administration: no difference

## CSCC[C@H](NC(=O)[C@H](CS)NC(=O)CNC(=O)[C@H](Cc1ccc(O)cc1)NC(=O)[C@H](CCC(=O)O)NC(=O)CNC(=O)[C@H](C)NC(=O)[C@H](CC(=O)O)NC(=O)[C@H](CCC(=O)O)NC(=O)[C@H](CCC(=O)O)NC(=O)[C@H](CCC(N)=O)NC(=O)[C@@H](N)CC(C)C)C(N)=O [MOTREM]
[13]; 27 healthy male volunteers
  product-related adverse events: No product-related adverse events were reported
[13]; continuous IV infusion, healthy male volunteers
  effective half-life: about 3 min
[13]; up to 5mg/kg 15-min loading dose and 6 mg kg h for 7.75 hours
  safety and tolerability: safe and well tolerated up to the highest dose tested
[14]
  GLP toxicology: safe and well tolerated in GLP toxicology studies
clinical
  clearance: 110 mL/min/kg
[15]
  PK linearity: linear

## CN(C)CCC=C1c2ccccc2CCc2ccccc21 [AMI, Amitriptylin]
[16]
  elimination half-life in pharmacological conditions: 24 h
[17]; median, AMI [0.4 + 1.4], dose 1.5 g, CLO [0.5 + 1.4], dose 3.0 g
  plasma concentration: 700 ng/mL
[17]; non-compartmental analysis
  elimination half-life in overdose: 43 h
[17]; p < 0.0001
  coma depth, AMI vs CLO: significantly deeper coma
[17]; p = 0.02
  seizures, AMI vs CLO: fewer seizures than CLO

## C[C@]1(Cn2ccnn2)[C@H](C(=O)O)N2C(=O)C[C@H]2S1(=O)=O [Tazobactam]
[1]
  OR for SM-VAP, univariate analysis: 1.75 [1.04; 2.94]

## CCCCc1oc2ccccc2c1C(=O)c1cc(I)c(OCCN(CC)CC)c(I)c1 [amiodarone]
[18]
  OR for recurrences of major arrhythmias with prophylactic AA treatment: 0.9 [0.3–3.1]

## COc1cccc(C2(O)CCCCC2CN(C)C)c1 (stereo not drawn) [tramadol]
GABA-A receptors
  interaction with GABA-A receptors: molecular interaction between tramadol and γ-aminobutyric acid (GABA)-A receptors not related to a competitive mechanism

## CCN1CCN(C(=O)N[C@@H](C(=O)N[C@@H]2C(=O)N3[C@@H]2SC(C)(C)[C@@H]3C(=O)O)c2ccccc2)C(=O)C1=O [Piperacillin]
[19]; MONOLIX, intermittent infusions
  clearance: 3 (0.71–10) L h^−1
[19]
  volume of distribution: 3.8 (0.72–25.8) L
[20]; 80% specificity and sensitivity
  residual concentration associated with occurrence of neurological disorders: greater than 40 mg L^−1
[20]; HPLC MS
  residual serum concentration, patients with neurological disorders or wakefulness delays: 98.2 ± 16.8 mg L^−1
  residual serum concentration, patients without neurological disorders: 21.6 ± 4.0 mg L^−1

## C[C@H]1O[C@@H](O[C@H]2[C@@H](O)C[C@H](O[C@H]3[C@@H](O)C[C@H](O[C@H]4CC[C@@]5(C)[C@H](CC[C@@H]6[C@@H]5C[C@@H](O)[C@]5(C)[C@@H](C7=CC(=O)OC7)CC[C@]65O)C4)O[C@@H]3C)O[C@@H]2C)C[C@H](O)[C@@H]1O [digoxin]
[21]
  patients who died in the ICU: 16%

From PMC5799093, “Proceedings of Réanimation 2018, the French Intensive Care Society International Congress” (Annals of Intensive Care, 2018)
